From patent US20210309658A1, “ARYL COMPOUNDS FOR THE TREATMENT AND PROPHYLAXIS OF BACTERIAL INFECTION” (Hoffmann-La Roche Inc., priority 2018, published 2021)
Converted amounts (≈) assume the structure as drawn.

Legend:
E. coli (BW25113) = assay: 50% growth inhibitory concentration (IC50) determination assay, E. coli; type: cell-based; conditions: Escherichia coli, BW25113; growth inhibition, Iso-Sensitest broth, OD 600 nm over 16 h; read-out: IC50 (μM) E. coli K12 BW25113
Experimental: (§1) The in vitro antimicrobial activity of the compounds against E. coli (BW25113, obtained from Coli Genetic Stock Center, #7636) and K. pneumoniae (ATCC10031) was determined according to the following procedure:
(§2) The assay used a 10-points Iso-Sensitest broth medium to measure quantitatively the in vitro activity of the compounds against E. coli BW25113 and K. pneumoniae ATCC 10031.
(§3) Stock compounds in DMSO were serially two-fold diluted (range from 50 to 0.097 μM final concentration) in 384 wells microtiter plates and inoculated with 49 μL the bacterial suspension in Iso-Sensitest broth medium to have a final cell concentration of ˜5×10^5 CFU/mL in a final volume/well of 50 μL/well. Microtiter plates were incubated at 35±2° C.
(§4) Bacterial cell growth was determined with the measurement of optical density at λ=600 nm each 20 minutes over a time course of 16 h.
(§5) Growth inhibition was calculated during the logarithmic growth of the bacterial cells with determination of the concentration inhibiting 50% (IC50) of the growth.

[1] = test system: K. pneumoniae (ATCC10031); assay: 50% growth inhibitory concentration (IC50) determination assay, K. pneumoniae; type: cell-based; conditions: Klebsiella pneumoniae, ATCC10031; growth inhibition, Iso-Sensitest broth, OD 600 nm over 16 h; * = detection limit; read-out: IC50 (μM) K. pneumoniae ATCC10031
Experimental: as §1, §2, §3, §4, §5

[2] = Lyophilisation Solubility Assay (LYSA); type: physicochemical; conditions: aqueous buffer, thermodynamic from solid; 0.05 M phosphate buffer, pH 6.5; * = detection limit
Experimental: The solubility of compounds of present invention was assessed by LYSA assay. Samples were prepared in duplicate from 10 mM DMSO stock solutions (20 μL) diluted in 30 μL pure DMSO. After evaporation of DMSO with a centrifugal vacuum evaporator, the residue was dissolved in 0.05 M phosphate buffer (150 μL, pH 6.5), stirred for one hour and shook for two hours. After one night, the solution was filtered using a microtiter filter plate. Then the filtrate and its 1/10 dilution were analyzed by HPLC-UV. In addition a four-point calibration curve was prepared from the 10 mM stock solutions and used for the solubility determination of the compounds.

[3] = Cytotoxicity assay (HepG2, CellTiter-Blue); type: cell-based; conditions: human; HepG2 cells, 3 days treatment; * = detection limit
Experimental: The cytotoxicity of compounds of present invention was assessed by HepG2 assay. HepG2 cells (ATCC HB-8065™) were seeded into 96-well plates (1.2×10^4 cells per well) and treated with compounds for 3 days, cell viability was measured at day 3 post compound treatment using the CellTiter-Blue® Cell Viability Assay (Promega, Cat. No. G8082). 20 μL of Cell titer blue buffer were added to each well of the cells, incubated for 3 hours at 37° C., and the fluorescence value was measured by a plate reader (Molecular Device SpectraMax M2). The CC50 value of each compound is plotted with GraphPad Prism using four parameter logistic equation.

E. coli (ATCC 25922) = assay: Minimal Inhibitory Concentration (MIC) assay; type: cell-based; conditions: Escherichia coli, ATCC25922; CAMHB, 20 hours at 35° C.; read-out: MIC (μg/mL) E. coli ATCC 25922
Experimental: The in vitro potency of compounds to inhibit E. coli (ATCC 25922) growth was assessed by MIC (Minimal Inhibitory Concentration) assay. Samples were prepared from 10 mM DMSO stock solutions. After serial 2-fold dilution in DMSO in a master plate (Greiner, Cat No: 651201), 180 μL sterile distilled water was added to 20 μL each aliquot of the samples. Then 10 μL diluted compounds were transferred into a new assay plate (Costar, 3599).
The growth medium […] Mueller Hinton Broth (CAMHB) was prepared by adding the 20 mg per liter CaCl2 and 20 mg per liter MgCl2 into the MHB medium (Jianglai Company, sterilized).
Vials of each of the test microorganisms were maintained frozen in the vapor phase of a liquid nitrogen freezer. Took out the bacteria E. coli ATCC 25922 (KWIKSTIK, 0335K) from liquid nitrogen freezer, thawed it in room temperature, and diluted the bacterial in the CAMHB medium to achieve a final inoculum of 5×10^5 CFU/mL, 90 μL CAMHB with bacteria was dispensed to the assay plate and pipetted 5 times.
Then the assay plates were incubated for 20 hours at 35° C. in ambient air. Following incubation, the MIC (μg/mL), the lowest concentration of drug that inhibits visible growth of the microorganism was read and recorded throw the microscope.

Row | SMILES | IC50 (E. coli (BW25113)) | IC50 [1] | solubility thermodynamic [2] | MIC (E. coli (ATCC 25922)) | CC50 at 3 days [3]
1 | CCNc1cc(F)cc2c1[nH]c1ncc(-c3cnc(OC4CCNCC4)nc3)c(-n3ccc(C(F)(F)F)n3)c12 [Example 1.53, N-ethyl-6-fluoro-3-[2-(4-piperidyloxy)pyrimidin-5-yl]-4-[3-(trifluoromethyl)pyrazol-1-yl]-9H-pyrido[2,3-b]indol-8-amine] | 1.29 µM | 0.121 µM | 21 µg/mL (≈ 38.9 µM) | – | –
2 | CCNc1cc(F)cc2c1[nH]c1ncc(-c3cnc(CN)nc3)c(-n3ccc(C(F)(F)F)n3)c12 [Example 1.46, 3-[2-(Aminomethyl)pyrimidin-5-yl]-N-ethyl-6-fluoro-4-[3-(trifluoromethyl)pyrazol-1-yl]-9H-pyrido[2,3-b]indol-8-amine] | 0.77 µM | ≤ 0.098 µM | 23 µg/mL (≈ 48.9 µM) | – | 27.4 µM
3 | CNc1c(F)c(F)cc2c1[nH]c1ncc(-c3cncc(C#N)c3)c(-n3cc(CN)c(C(F)(F)F)n3)c12 [Example 1.49, 5-[4-[4-(Aminomethyl)-3-(trifluoromethyl)pyrazol-1-yl]-6,7-difluoro-8-(methylamino)-9H-pyrido[2,3-b]indol-3-yl]pyridine-3-carbonitrile] | 0.698 µM | 0.098 µM | 14 µg/mL (≈ 28.1 µM) | 0.359 µg/mL (≈ 0.72 µM) | 12.8 µM
4 | CCNc1cc(F)cc2c1[nH]c1ncc(-c3cnc(OC)nc3)c(-n3nc(C#N)c4c3CNCC4)c12 [Example 1.39, 1-[8-(Ethylamino)-6-fluoro-3-(2-methoxypyrimidin-5-yl)-9H-pyrido[2,3-b]indol-4-yl]-4,5,6,7-tetrahydropyrazolo[3,4-c]pyridine-3-carbonitrile] | 2.37 µM | ≤ 0.098 µM | 42 µg/mL (≈ 86.9 µM) | – | 49 µM
5 | CCNc1cc(F)cc2c1[nH]c1ncc(-c3cnc(NC4CCNCC4)nc3)c(-n3ccc(C(F)(F)F)n3)c12 [Example 1.10, N-Ethyl-6-fluoro-3-[2-(4-piperidylamino)pyrimidin-5-yl]-4-[3-(trifluoromethyl)pyrazol-1-yl]-9H-pyrido[2,3-b]indol-8-amine] | – | – | 7.6 µg/mL (≈ 14.1 µM) | – | –
6 | CCNc1cc(F)cc2c1[nH]c1ncc(-c3cnc(NC4CCNC4)nc3)c(-n3ccc(C(F)(F)F)n3)c12 (centres unmarked) [Example 1.24, N-Ethyl-6-fluoro-3-[2-(pyrrolidin-3-ylamino)pyrimidin-5-yl]-4-[3-(trifluoromethyl)pyrazol-1-yl]-9H-pyrido[2,3-b]indol-8-amine] | – | – | 8.3 µg/mL (≈ 15.8 µM) | – | 11.8 µM
7 | CCNc1cc(F)cc2c1[nH]c1ncc(-c3cncc(CN)c3)c(-n3ccc(C(F)(F)F)n3)c12 [Example 1.45, 3-[5-(Aminomethyl)-3-pyridyl]-N-ethyl-6-fluoro-4-[3-(trifluoromethyl)pyrazol-1-yl]-9H-pyrido[2,3-b]indol-8-amine] | 2.04 µM | ≤ 0.098 µM | 16 µg/mL (≈ 34.1 µM) | – | –
8 | CCNc1cc(F)cc2c1[nH]c1ncc(-c3cncc(C#N)c3)c(-n3cc(CN)c(C(F)(F)F)n3)c12 [Example 1.26, 5-[4-[4-(Aminomethyl)-3-(trifluoromethyl)pyrazol-1-yl]-8-(ethylamino)-6-fluoro-9H-pyrido[2,3-b]indol-3-yl]pyridine-3-carbonitrile] | 0.374 µM | ≤ 0.098 µM | 32.5 µg/mL (≈ 65.7 µM) | 0.618 µg/mL (≈ 1.25 µM) | –

Continued, in another order:

Row | IC50 (E. coli (BW25113)) | IC50 [1] | solubility thermodynamic [2] | MIC (E. coli (ATCC 25922)) | SMILES | CC50 at 3 days [3]
9 | – | – | 24 µg/mL (≈ 43.1 µM) | – | CCNc1cc(F)cc2c1[nH]c1ncc(-c3cnc(NCC(C)(C)C(=O)O)nc3)c(-n3ccc(C(F)(F)F)n3)c12 [Example 2.05, 3-[[5-[8-(Ethylamino)-6-fluoro-4-[3-(trifluoromethyl)pyrazol-1-yl]-9H-pyrido[2,3-b]indol-3-yl]pyrimidin-2-yl]amino]-2,2-dimethyl-propanoic acid] | 27.6 µM
10 | 1.67 µM | 0.254 µM | 148 µg/mL (≈ 289 µM) | – | CNc1cc(F)cc2c1[nH]c1ncc(-c3cnc(C4(C(=O)O)CC4)nc3)c(-n3ccc(C(F)(F)F)n3)c12 [Example 2.02, 1-[5-[6-Fluoro-8-(methylamino)-4-[3-(trifluoromethyl)pyrazol-1-yl]-9H-pyrido[2,3-b]indol-3-yl]pyrimidin-2-yl]cyclopropanecarboxylic acid] | 62.6 µM
11 | – | – | 67 µg/mL (≈ 128 µM) | – | CCNc1cc(F)cc2c1[nH]c1ncc(-c3cnc(C4(C(=O)O)CC4)nc3)c(-n3ccc(C(F)(F)F)n3)c12 [Example 2.01, 1-[5-[8-(Ethylamino)-6-fluoro-4-[3-(trifluoromethyl)pyrazol-1-yl]-9H-pyrido[2,3-b]indol-3-yl]pyrimidin-2-yl]cyclopropanecarboxylic Acid] | 38.6 µM
12 | 0.17 µM | ≤ 0.098 µM | < 1 µg/mL | 0.127 µg/mL (≈ 0.292 µM) | CNc1cc(F)cc2c1[nH]c1nc(Oc3cnc(C)nc3)nc(N3C[C@H]4C[C@@H]3C[C@H]4N)c12 [GP-6, reference compound] | 5.6 µM
13 | 0.827 µM | 0.441 µM | – | 0.731 µg/mL (≈ 1.36 µM) | CCNc1cc(F)cc2c1[nH]c1ncc(-c3cncc(Cc4n[nH]c(=O)o4)c3)c(-n3ccc(C(F)(F)F)n3)c12 [Example 6.01, 5-[[5-[8-(ethylamino)-6-fluoro-4-[3-(trifluoromethyl)pyrazol-1-yl]-9H-pyrido[2,3-b]indol-3-yl]-3-pyridyl]methyl]-3H-1,3,4-oxadiazol-2-one] | 11.4 µM
14 | 0.204 µM | ≤ 0.098 µM | – | 0.142 µg/mL (≈ 0.293 µM) | CCNc1cc(F)cc2c1[nH]c1ncc(-c3cnc(C(N)=O)nc3)c(-n3ccc(C(F)(F)F)n3)c12 [Example 3.04, 5-[8-(Ethylamino)-6-fluoro-4-[3-(trifluoromethyl)pyrazol-1-yl]-9H-pyrido[2,3-b]indol-3-yl]pyrimidine-2-carboxamide] | 20.9 µM
